Test systems include OVCAR-8 ovarian; TK-10 renal; RXF 393 renal; SK-MEL-28 melanoma; 786-0 renal; A498 renal; HCT-15 colon; IGROV1 ovarian; MDA-MB-231 breast; OVCAR-4 ovarian.
Common to all, as to test: inhibition of tumour cell growth, NCI panel, 48 h

Nine compounds from PubChem BioAssay (NCI) can be followed below.

The structures appear in SMILES notation.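 Each compound was tested at five concentrations against cells in 96-well plates for 48 hours. GI50 is the concentration that inhibits growth by half. Definition used: TGI = concentration required for complete inhibition of growth.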 A value given as a limit tells only on which side of the number the result lay.

For the compound `CC(=O)[C@@]1(O)CC[C@H]2[C@@H]3C[C@H](C)C4=CC(=O)CC[C@]4(C)[C@H]3[C@@H](O)C[C@@]21C`, the TGI in the assay with OVCAR-8 ovarian, in the assay on TK-10 renal, in the assay with RXF 393 renal, in the assay with SK-MEL-28 melanoma, with 786-0 renal and with A498 renal was above 100 µM each time. The TGI in the assay on HCT-15 colon, in the assay on IGROV1 ovarian, with MDA-MB-231 breast and in the assay with OVCAR-4 ovarian was above 100 µM in each case.
`COC(=O)c1c2c(c(C)[n+]([O-])c1C)C(=O)C=C(NCc1ccc(F)c(Cl)c1)C2=O`: the GI50 in the assay on OVCAR-8 ovarian is 0.155 µM; in the assay on TK-10 renal it was 2220 nM; in the assay on RXF 393 renal, 1130 nM; with SK-MEL-28 melanoma, 0.411 µM; with 786-0 renal, 1.13 µM; with A498 renal, 437 nM. The GI50 in the assay with HCT-15 colon was 85.5 nM; with IGROV1 ovarian, 421 nM; in the assay on MDA-MB-231 breast, 0.269 µM; with OVCAR-4 ovarian it was 151 nM. Further, the TGI in the assay on OVCAR-8 ovarian worked out at 1.14 µM; with TK-10 renal, 5.49 µM; in the assay with RXF 393 renal, 2.46 µM; in the assay on SK-MEL-28 melanoma, 2.15 µM; in the assay with 786-0 renal, 3.6 µM; in the assay with A498 renal, 2.05 µM. The TGI in the assay on HCT-15 colon was determined as 1.63 µM; in the assay with IGROV1 ovarian, 1.91 µM; in the assay on MDA-MB-231 breast, 3.42 µM; with OVCAR-4 ovarian, 0.603 µM.
Take `O=C1NC(O)C(c2c[nH]c3ccccc23)=C1c1c[nH]c2ccccc12` (configuration not stated): the GI50 in the assay on OVCAR-8 ovarian is above 25 µM; with TK-10 renal, above 25000 nM; in the assay with RXF 393 renal, above 25000 nM; with SK-MEL-28 melanoma, above 25 µM; with 786-0 renal, above 25 µM; in the assay on A498 renal, above 25000 nM. In addition, the GI50 is 18400 nM with HCT-15 colon, above 25000 nM with IGROV1 ovarian, above 16.5 µM in the assay on MDA-MB-231 breast and above 25000 nM with OVCAR-4 ovarian. In addition, the TGI in the assay with OVCAR-8 ovarian, in the assay with TK-10 renal, in the assay with RXF 393 renal, in the assay with SK-MEL-28 melanoma, in the assay on 786-0 renal and with A498 renal was above 25 µM each time. Besides, the TGI in the assay with HCT-15 colon, in the assay with IGROV1 ovarian, in the assay with MDA-MB-231 breast and in the assay on OVCAR-4 ovarian was above 25 µM in each case.
Turning to `COc1cc2cc(Oc3ccc(NC(=O)Nc4cccc(C(F)(F)F)c4)cc3)c(C)nc2cc1OC`, the GI50 with OVCAR-8 ovarian is 1.71 µM; in the assay on TK-10 renal it was 2260 nM; in the assay with RXF 393 renal, 1630 nM; in the assay with SK-MEL-28 melanoma, 1.97 µM; in the assay with 786-0 renal it was 1.74 µM; with A498 renal it was 1290 nM. Further, the GI50 with HCT-15 colon was 1850 nM; in the assay with IGROV1 ovarian it was 2950 nM; with MDA-MB-231 breast it was 1.13 µM; with OVCAR-4 ovarian, 2300 nM. For the same compound, the TGI with OVCAR-8 ovarian is 6.28 µM; in the assay on TK-10 renal, 9.93 µM; in the assay on RXF 393 renal, 4.97 µM; in the assay on SK-MEL-28 melanoma it was 8.37 µM; in the assay on 786-0 renal it was 9.24 µM; in the assay on A498 renal it was 4.95 µM. The TGI in the assay on HCT-15 colon is 22.2 µM; in the assay with IGROV1 ovarian it was 24.9 µM; with MDA-MB-231 breast it was 4.15 µM; in the assay on OVCAR-4 ovarian it was 9.7 µM.
As to `COc1c(OC)c(OC)c2c(c1OC)c(=O)c1ccccc1n2C`, the TGI in the assay with OVCAR-8 ovarian, in the assay with TK-10 renal, in the assay with SK-MEL-28 melanoma, in the assay with 786-0 renal, with A498 renal and in the assay with HCT-15 colon was above 100 µM in each case. The TGI with IGROV1 ovarian, in the assay with MDA-MB-231 breast and in the assay with OVCAR-4 ovarian was above 100 µM each time.
For `O=C(Nc1cc(Cl)cc(Cl)c1)c1ccc(NC2=C(Cl)C(=O)N(Cc3ccc(Cl)cc3Cl)C2=O)cc1`, the GI50 in the assay with OVCAR-8 ovarian was 21.6 µM; in the assay with TK-10 renal, 768 nM; in the assay on RXF 393 renal, 29600 nM; in the assay with SK-MEL-28 melanoma, 21.4 µM; in the assay on 786-0 renal, 3.41 µM; in the assay on HCT-15 colon, 7060 nM. Moreover, the figures for the GI50 with IGROV1 ovarian, in the assay on MDA-MB-231 breast and with OVCAR-4 ovarian were 2150 nM, 19.6 µM and 21800 nM, respectively. Further, the TGI was 87.2 µM in the assay with OVCAR-8 ovarian; 26 µM in the assay with TK-10 renal; above 100 µM in the assay with RXF 393 renal; 75.8 µM in the assay with SK-MEL-28 melanoma; 35.1 µM in the assay on 786-0 renal; 95.3 µM in the assay with HCT-15 colon. In addition, the TGI was 7.17 µM in the assay with IGROV1 ovarian, 41.8 µM in the assay with MDA-MB-231 breast and above 100 µM in the assay on OVCAR-4 ovarian.
As to `Cc1ccc(/C=C2/SC(Nc3nc(-c4csc(NC5=NC(=O)/C(=C\c6ccc(C)cc6)S5)n4)cs3)=NC2=O)cc1`, the GI50 was 6.05 µM with OVCAR-8 ovarian; 8490 nM with TK-10 renal; 23800 nM in the assay with RXF 393 renal; 25 µM in the assay on SK-MEL-28 melanoma; 7.68 µM in the assay with 786-0 renal; 24000 nM in the assay on IGROV1 ovarian. Further, the GI50 in the assay on MDA-MB-231 breast was 9.76 µM. Besides, the TGI was 26.6 µM in the assay with OVCAR-8 ovarian; 26.6 µM with TK-10 renal; above 50 µM in the assay with RXF 393 renal; above 50 µM with SK-MEL-28 melanoma; 25.6 µM with 786-0 renal; above 50 µM in the assay on IGROV1 ovarian. This compound also gave a TGI in the assay on MDA-MB-231 breast of 40.6 µM.
As for `N#Cc1nc2c(S(=O)(=O)c3ccccc3)c(N)n(Cc3cccnc3)c2nc1C#N`, the GI50 was 10.9 µM in the assay on OVCAR-8 ovarian; 26100 nM in the assay with TK-10 renal; 2470 nM in the assay with RXF 393 renal; 27.8 µM in the assay with SK-MEL-28 melanoma; 22.2 µM in the assay on 786-0 renal; 17200 nM in the assay on A498 renal. Moreover, the GI50 in the assay with HCT-15 colon was above 100000 nM; with MDA-MB-231 breast, 11.8 µM; with OVCAR-4 ovarian it was above 100000 nM. For the same compound, the TGI in the assay with OVCAR-8 ovarian is above 100 µM; in the assay on TK-10 renal it was 97 µM; in the assay on RXF 393 renal, 9.1 µM; with SK-MEL-28 melanoma, above 100 µM; in the assay on 786-0 renal, 79.3 µM; in the assay with A498 renal, 55.5 µM. Besides, the TGI was above 100 µM in the assay on HCT-15 colon, 52.2 µM in the assay with MDA-MB-231 breast and above 100 µM in the assay on OVCAR-4 ovarian.
With `O=C1c2cc3c(cc2-c2c1c1ccc(Cl)cc1c(=O)n2CCCNCCO)OCO3`, the GI50 with OVCAR-8 ovarian is 0.476 µM; with TK-10 renal, 1500 nM; in the assay with RXF 393 renal, 926 nM; in the assay with SK-MEL-28 melanoma, 1.43 µM; in the assay on 786-0 renal, 0.119 µM; in the assay on A498 renal, 1270 nM. Besides, the GI50 with HCT-15 colon is 677 nM; in the assay with MDA-MB-231 breast, 1.73 µM; in the assay on OVCAR-4 ovarian, 1480 nM. The TGI stood at 2.59 µM in the assay on OVCAR-8 ovarian; 2.94 µM with TK-10 renal; 2.59 µM in the assay with RXF 393 renal; 3.26 µM in the assay with SK-MEL-28 melanoma; 0.278 µM with 786-0 renal; 2.65 µM with A498 renal. Also, the TGI with HCT-15 colon turned out to be 2.25 µM; in the assay on MDA-MB-231 breast, 3.49 µM; in the assay on OVCAR-4 ovarian, 3.32 µM.
